Source: ChEMBL document CHEMBL4020783, “Cytotoxic pterosins from Pteris multifida roots against HCT116 human colon cancer cells” (Bioorg Med Chem Lett, 2017)
pIC50: −log10 of the molar value. The source made the active and inactive calls. The calls are words filed in the database; no cut-off is given here.

Tests used:
HCT-116 [1] = test: Cytotoxicity against human HCT116 cells assessed as reduction in cell viability after 48 hrs by MTT assay; type: functional, cell-based; conditions: HCT-116, 48 h
HCT-116 [2] = test: Induction of apoptosis in human HCT116 cells assessed as late apoptotic cells at 50 uM after 48 hrs by Annexin-V/propidium iodide staining-based flow cytometric analysis (reference value: 9.3%); type: functional
HCT-116 [3] = test: Induction of morphological changes in human HCT116 cells assessed as cell rounding and shrinkage; type: functional, cell-based
HCT-116 [4] = test: Induction of apoptosis in human HCT116 cells assessed as early apoptotic cells at 10 uM after 48 hrs by Annexin-V/propidium iodide staining-based flow cytometric analysis (reference value: 4.2%); type: functional
HCT-116 [5] = test: Induction of apoptosis in human HCT116 cells assessed as increase in caspase-9 protein expression after 48 hrs by Western blot analysis; type: functional, cell-based
HCT-116 [6] = test: Induction of apoptosis in human HCT116 cells assessed as early apoptotic cells at 50 uM after 48 hrs by Annexin-V/propidium iodide staining-based flow cytometric analysis (reference value: 4.2%); type: functional
HCT-116 [7] = test: Induction of apoptosis in human HCT116 cells assessed as increase in cleaved caspase-9 protein expression after 48 hrs by Western blot analysis; type: functional, cell-based
HCT-116 [8] = test: Induction of apoptosis in human HCT116 cells assessed as late apoptotic cells at 10 uM after 48 hrs by Annexin-V/propidium iodide staining-based flow cytometric analysis (reference value: 9.3%); type: functional

SMILES	pIC50 (HCT-116 [1])	further results
Cc1cc2c(c(CO)c1CCO)C(=O)C(C)(C)[C@@H]2O	3.92	–
O=c1[nH]cc(F)c(=O)[nH]1 [FLUOROURACIL]	4.38	–
Cc1cc2c(c(C)c1CCO)C(=O)[C@@H](C)[C@@H]2O[C@@H]1O[C@H](COC(=O)/C=C/c2ccc(O)cc2)[C@@H](O)[C@H](O)[C@H]1O	4.76	–
Cc1cc2c(c(C)c1CCO)C(=O)[C@H](C)C2	4.30	–
Cc1cc2c(c(C)c1CCO)C(=O)C(C)(C)[C@@H]2O	3.74	–
Cc1cc2c(c(C)c1CCO)C(=O)[C@](C)(CO)[C@@H]2O	3.98	–
Cc1cc2c(c(C)c1CCO)C(=O)[C@@H](C)[C@@H]2O[C@@H]1O[C@H](CO)[C@@H](O)[C@H](O)[C@H]1O	4.48	–
Cc1cc2c(c(C)c1CCO)C(=O)[C@@H](C)[C@@H]2O	4.14	–
Cc1cc2c(c(CO)c1CCO[C@@H]1O[C@H](CO)[C@@H](O)[C@H](O)[C@H]1O)C(=O)C(C)(C)[C@@H]2O	4.09	–
CO[C@@H]1c2cc(C)c(CCO)c(C)c2C(=O)[C@H]1C	4.10	–
Cc1cc2c(c(C)c1CCO)C(=O)[C@H](C)[C@@H]2O	3.60	–
Cc1cc2c(c(C)c1CCO)C(=O)[C@@H](C)[C@@H]2O[C@@H]1O[C@H](CO)[C@@H](OC(=O)/C=C/c2ccc(O)c(O)c2)[C@H](O)[C@H]1O	5.10	Activity (HCT-116 [2]): 31.6%; Activity (HCT-116 [3]): Active; Activity (HCT-116 [4]): 6.2%; Activity (HCT-116 [5]): Dose-dependent effect; Activity (HCT-116 [6]): 17.1%; Activity (HCT-116 [7]): Dose-dependent effect; Activity (HCT-116 [8]): 20.9%
Cc1cc2c(c(C)c1CCO[C@@H]1O[C@H](CO)[C@@H](O)[C@H](O)[C@H]1O)C(=O)[C@H](C)C2	4.09	–
